From patent EP1247803A2, “Indolinone compounds suitable for modulation of protein kinases” (Sugen, Inc., priority 1996, dated 1998)

Tests used:
[1] = target: T1, FLK-1 receptor (Mus musculus, UniProt P35918); assay: FLK-1 ELISA (kinase activity of the FLK-1 receptor in FLK-1/NIH3T3 cells, VEGF stimulated); format: cell-based
T1 construct: expressed in transfected cells; host or cells: NIH3T3 C7#3
How it was run: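 FLK-1-expressing NIH3T3 C7#3 cells, starved overnight in 0.1% FBS medium, were treated with compounds at a 1:200 final dilution (0.5% DMSO) for 2 h at 37 °C, with VEGF stimulation. FLK-1 kinase activity was read by ELISA on anti-rabbit IgG plates using affinity-purified anti-FLK-1 antiserum.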

[2] = tested on: MET; assay: MET biochemical kinase assay; design: species or system human; concentration or dose not given beside the values
How it was run: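 Plates coated with anti-rabbit Fc bind a rabbit anti-MET antibody that captures receptor from cell lysates; unbound protein is washed off before compound and ATP-containing kinase buffer go in.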

T1 sequence (P35918 20-1345): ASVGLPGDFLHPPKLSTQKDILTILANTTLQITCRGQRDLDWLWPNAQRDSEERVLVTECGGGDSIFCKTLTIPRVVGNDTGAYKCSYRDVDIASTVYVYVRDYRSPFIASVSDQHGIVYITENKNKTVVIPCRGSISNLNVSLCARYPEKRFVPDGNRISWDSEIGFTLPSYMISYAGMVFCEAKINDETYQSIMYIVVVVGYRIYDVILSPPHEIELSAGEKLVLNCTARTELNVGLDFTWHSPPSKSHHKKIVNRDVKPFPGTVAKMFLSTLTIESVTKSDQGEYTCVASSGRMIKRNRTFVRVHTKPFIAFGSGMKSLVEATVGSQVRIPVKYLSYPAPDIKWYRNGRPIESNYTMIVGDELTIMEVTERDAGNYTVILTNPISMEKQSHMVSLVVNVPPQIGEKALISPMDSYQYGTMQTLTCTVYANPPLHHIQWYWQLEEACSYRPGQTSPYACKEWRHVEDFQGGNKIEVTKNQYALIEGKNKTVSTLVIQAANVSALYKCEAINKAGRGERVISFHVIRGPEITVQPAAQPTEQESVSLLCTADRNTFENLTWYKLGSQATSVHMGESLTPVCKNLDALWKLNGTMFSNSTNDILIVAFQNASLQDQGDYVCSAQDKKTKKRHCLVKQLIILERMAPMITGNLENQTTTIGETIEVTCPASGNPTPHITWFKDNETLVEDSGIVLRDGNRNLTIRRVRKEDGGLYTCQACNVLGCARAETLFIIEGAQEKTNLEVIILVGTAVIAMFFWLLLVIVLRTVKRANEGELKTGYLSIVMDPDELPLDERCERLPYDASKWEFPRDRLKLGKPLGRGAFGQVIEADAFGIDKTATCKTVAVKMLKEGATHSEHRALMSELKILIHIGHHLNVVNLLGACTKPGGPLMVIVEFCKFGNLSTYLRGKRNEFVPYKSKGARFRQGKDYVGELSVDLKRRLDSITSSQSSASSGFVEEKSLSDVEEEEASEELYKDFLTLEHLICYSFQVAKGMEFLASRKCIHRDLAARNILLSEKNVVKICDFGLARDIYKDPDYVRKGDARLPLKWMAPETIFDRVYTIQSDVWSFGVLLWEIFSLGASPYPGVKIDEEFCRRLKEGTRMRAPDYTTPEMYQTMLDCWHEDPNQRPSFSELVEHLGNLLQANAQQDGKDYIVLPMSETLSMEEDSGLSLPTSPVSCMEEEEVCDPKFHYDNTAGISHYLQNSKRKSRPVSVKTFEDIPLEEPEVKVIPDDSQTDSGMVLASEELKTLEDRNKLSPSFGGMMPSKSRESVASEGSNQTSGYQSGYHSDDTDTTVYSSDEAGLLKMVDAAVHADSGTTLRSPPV

Structure (SMILES)	Fik Kinase %Inhibition [1]	Met Kinase % Inhibition [2]
COc1cc(O)ccc1C=C1C(=O)Nc2ccc(Br)c(C)c21 [10720/C03]	15.1%	50.3%
O=C1Nc2ccc(CCCl)cc2C1=Cc1ccc(F)cc1Cl [10719/G09]	18.1%	1.3%
O=C1Nc2ccc(S(=O)(=O)Nc3ccc(C(F)(F)F)cc3)cc2C1=Cc1cccc([N+](=O)[O-])c1 [10719/E10]	17.6%	40.2%
O=C1Nc2ccc(CCCl)cc2C1=Cc1ccc(O)c(O)c1 [10719/G03]	-25.8%	87.6%
CCOc1cc(C=C2C(=O)Nc3ccc(I)cc32)ccc1O [10720/B09]	10.1%	57.4%
O=C1Nc2ccc(CCCl)cc2C1=Cc1cccc([N+](=O)[O-])c1 [10719/G10]	9.7%	35.5%
O=C1Nc2ccc(S(=O)(=O)Nc3ccc(C(F)(F)F)cc3)cc2C1=Cc1ccc(O)cc1 [10719/E07]	26.7%	55.5%
CNS(=O)(=O)c1ccc2c(c1)C(=Cc1ccc(N(C)C)cc1)C(=O)N2 [10719/D08]	8.2%	45.2%
Cc1cc(O)cc(O)c1C=C1C(=O)Nc2ccc(Br)c(C)c21 [10720/C08]	10.9%	65.6%
O=C1Nc2c(Br)cc(Br)cc2C1=Cc1ccccc1 [10720/A06]	5.6%	63.6%
O=C1Nc2ccc(S(=O)(=O)N3CCOCC3)cc2C1=Cc1ccc(O)c(O)c1 [10719/F03]	11.2%	89.5%
CCOc1ccccc1C=C1C(=O)Nc2ccc(Br)c(C)c21 [10717/C02]	4.1%	29.7%
COc1ccc(C=C2C(=O)Nc3ccc(S(=O)(=O)Nc4ccc(C(F)(F)F)cc4)cc32)c(OC)c1 [10719/E04]	31.2%	3.1%
O=C1Nc2c(Br)cc(Br)cc2C1=Cc1ncc[nH]1 [10720/A11]	-0.6%	58.7%
CN(C)c1ccc(C=C2C(=O)Nc3ccc(CCCl)cc32)cc1 [10719/G08]	3.2%	39.4%
Cc1cc(O)cc(O)c1C=C1C(=O)Nc2ccc(I)cc21 [10720/B08]	3.6%	27.7%
CCOc1ccc(C=C2C(=O)Nc3ccc(S(=O)(=O)N4CCOCC4)cc32)cc1OC [10719/F02]	28.6%	28.1%
CCOc1ccc(C=C2C(=O)Nc3ccc(CCCl)cc32)cc1OC [10719/G02]	27.3%	-2.4%
Cc1c(Br)ccc2c1C(=Cc1ccccc1O)C(=O)N2 [10720/C05]	-36.1%	72.5%
CNS(=O)(=O)c1ccc2c(c1)C(=Cc1cccc([N+](=O)[O-])c1)C(=O)N2 [10719/D10]	8.3%	22.3%
O=C1Nc2ccc(I)cc2C1=Cc1ccc[nH]1 [10717/B09]	-40.7%	88.8%

Structure (SMILES)	Fik Kinase %Inhibition [1]	Met Kinase % Inhibition [2]
CSc1ccc(C=C2C(=O)Nc3c(Br)cc(Br)cc32)s1 [10720/A07]	6.6%	57.2%
O=C1Nc2ccc(S(=O)(=O)Nc3ccc(C(F)(F)F)cc3)cc2C1=Cc1ccc(F)cc1Cl [10719/E09]	13.5%	36.1%
CCc1c(C)[nH]c(C=C2C(=O)Nc3ccc(S(=O)(=O)N4CCOCC4)cc32)c1C [10719/F05]	20.7%	63.1%
CCc1c(C)[nH]c(C=C2C(=O)Nc3ccc(S(=O)(=O)Nc4ccc(C(F)(F)F)cc4)cc32)c1C [10719/E05]	21.5%	39.0%
CNS(=O)(=O)c1ccc2c(c1)C(=Cc1ccc(O)cc1)C(=O)N2 [10719/D07]	-123.5%	41.5%
O=C1Nc2ccc(S(=O)(=O)N3CCOCC3)cc2C1=Cc1ccc(F)cc1Cl [10719/F09]	-6.5%	19.2%
O=C1Nc2ccc(S(=O)(=O)N3CCOCC3)cc2C1=Cc1cccc([N+](=O)[O-])c1 [10719/F10]	10.4%	30.8%
Cc1cc(O)cc(O)c1C=C1C(=O)Nc2c(Br)cc(Br)cc21 [10720/A08]	-2.2%	77.9%
COc1ccc(C=C2C(=O)Nc3c(Br)cc(Br)cc32)cc1OC [10720/A04]	12.3%	62.3%
CCc1c(C)[nH]c(C=C2C(=O)Nc3ccc(S(=O)(=O)NC)cc32)c1C [10719/D05]	16.3%	71.8%
CCc1c(C)[nH]c(C=C2C(=O)Nc3ccc(CCCl)cc32)c1C [10719/G05]	18.0%	15.9%
Cc1c(Br)ccc2c1C(=Cc1ccccc1)C(=O)N2 [10720/C06]	12.2%	36.7%
CNS(=O)(=O)c1ccc2c(c1)C(=Cc1ccc(O)c(O)c1)C(=O)N2 [10719/D03]	4.8%	93.2%
CCOc1ccc(C=C2C(=O)Nc3ccc(S(=O)(=O)Nc4ccc(C(F)(F)F)cc4)cc32)cc1OC [10719/E02]	26.1%	35.7%
Cc1c(Br)ccc2c1C(=Cc1ccc(F)cc1C(F)(F)F)C(=O)N2 [10719/C11]	9.9%	-5.1%
COc1ccc(C=C2C(=O)Nc3ccc(CCCl)cc32)c(OC)c1 [10719/G04]	11.5%	-8.2%
O=C1Nc2ccc(S(=O)(=O)Nc3ccc(C(F)(F)F)cc3)cc2C1=Cc1ccc(O)c(O)c1 [10719/E03]	17.1%	87.2%
O=C1Nc2ccc(I)cc2C1=Cc1ccc(Br)cc1 [10717/B08]	-0.9%	88.8%
COc1ccc(O)c(C=C2C(=O)Nc3c(Br)cc(Br)cc32)c1 [10720/A10]	-5.2%	68.4%
CCOc1ccc(C=C2C(=O)Nc3ccc(S(=O)(=O)NC)cc32)cc1OC [10719/D02]	9.7%	27.5%
COc1cccc(O)c1C=C1C(=O)Nc2ccc(I)cc21 [10717/B10]	-2.3%	56.1%

Structure (SMILES)	Fik Kinase %Inhibition [1]	Met Kinase % Inhibition [2]
Cc1[nH]c(C=C2C(=O)Nc3ccc(I)cc32)c(Br)c1Br [10717/B11]	11.4%	91.0%
CNS(=O)(=O)c1ccc2c(c1)C(=Cc1c(OC)cc(OC)cc1OC)C(=O)N2 [10719/D06]	25.8%	11.2%
O=C1Nc2c(Br)cc(Br)cc2C1=Cc1c(F)cc(F)cc1F [10720/A02]	4.7%	45.2%
Cc1c(Br)ccc2c1C(=Cc1cccc([N+](=O)[O-])c1)C(=O)N2 [10719/C10]	11.8%	7.9%
CNS(=O)(=O)c1ccc2c(c1)C(=Cc1ccc(O)cc1OC)C(=O)N2 [10720/D03]	17.0%	61.5%
O=C1Nc2ccc(I)cc2C1=Cc1ccccc1O [10720/B05]	11.6%	51.8%
CSc1ccc(C=C2C(=O)Nc3ccc(I)cc32)s1 [10720/B07]	12.0%	61.5%
COc1ccc(C=C2C(=O)Nc3ccc(S(=O)(=O)N4CCOCC4)cc32)c(OC)c1 [10719/F04]	26.6%	3.3%
CSc1ccc(C=C2C(=O)Nc3ccc(Br)c(C)c32)s1 [10720/C07]	20.7%	26.7%
COc1cc(OC)c(C=C2C(=O)Nc3ccc(CCCl)cc32)c(OC)c1 [10719/G06]	23.2%	-18.1%
COc1cc(OC)c(C=C2C(=O)Nc3ccc(S(=O)(=O)N4CCOCC4)cc32)c(OC)c1 [10719/F06]	13.5%	-22.0%
Cc1c(Br)ccc2c1C(=Cc1c(F)cc(F)cc1F)C(=O)N2 [10720/C02]	18.0%	63.6%
CCOc1cc(C=C2C(=O)Nc3ccc(Br)c(C)c32)ccc1O [10720/C09]	12.1%	47.5%
O=C1Nc2ccc(S(=O)(=O)N3CCOCC3)cc2C1=Cc1ccc(O)cc1 [10719/F07]	18.7%	36.7%
COc1cc(O)ccc1C=C1C(=O)Nc2ccc(I)cc21 [10720/B03]	6.4%	53.3%
COc1ccc(O)c(C=C2C(=O)Nc3ccc(I)cc32)c1 [10720/B10]	-5.5%	45.2%
CN(C)c1ccc(C=C2C(=O)Nc3ccc(S(=O)(=O)Nc4ccc(C(F)(F)F)cc4)cc32)cc1 [10719/E08]	21.8%	80.0%
Cc1ccc(C=C2C(=O)Nc3ccc(I)cc32)s1 [10717/B07]	-18.3%	90.0%
O=C1Nc2ccc(I)cc2C1=Cc1ccccc1 [10720/B06]	7.3%	55.1%
